Experimental data: patent US20060286131A1, “Use of stellate ganglion block for the treatment of hot flashes and other conditions” (priority 2005, published 2006)

System: severe menopausal hot flashes
Experiment: stellate ganglion block with Marcaine in women with hot flashes, self-reported pre and post block
Format: in vivo
Text: A stellate ganglion block is illustratively performed by placing the patient in the supine position (on the back) with the neck slightly extended and the jaw open. While the patient is usually conscious for the procedure, a medication such as Versed (midazolam hydrochloride), fentanyl, or other sedative is often administered, to relax the patient. A local anesthetic is also usually administered, to numb the skin and tissue down to the ganglion nerve. A needle is inserted toward the stellate ganglion. […] The needle 20 is shown inserted adjacent to the stellate ganglion 10. In the illustrative block, a contrast solution is injected through needle 20 via syringe 22, and the needle position is confirmed by fluoroscopy or other means, as are known in the art.
The anesthetic 30 is then injected via needle 20 into stellate ganglion 10. Illustratively, 5 cc 0.375% Marcaine® (bupivacaine) may be used. However, it is understood that other anesthetics, illustratively lidocaine, morphine or other opioids, clonidine, botox, or tetracine, or a combination of anesthetic and epinephrine, may be used and that the dosage range may vary depending on the particular anesthetic and other factors, as are known in the art. Needle 20 is removed, and the patient is optionally placed in the sitting position to facilitate the spread of anesthesia inferiorly to the stellate ganglion. Illustratively, longer acting anesthetics such as bupivacaine are used, but other anesthetics may be used, as are known in the art. The stellate ganglion block may also be performed by radiofrequency lesioning, as is known in the art.
Six women suffering from severe menopausal hot flashes each received a standard stellate ganglion block (0.375% Marcaine, 5cc), as described above. Hot flashes were assessed by self-reporting pre and post stellate ganglion block.

Q: Which results are given for `CCCCN1CCCCC1C(=O)Nc1c(C)cccc1C` (stereo not shown) [Marcaine, bupivacaine]?
A: additional asymptomatic period of relief after second stellate ganglion block (0.375% Marcaine 5cc, second block after mild hot flashes returned): 4-18 weeks; hot flash relief of repeated blocks compared with the initial block (repeated blocks, each case): equal to or greater than that of the initial block; success of initial stellate ganglion block, evidenced by positive Horner's syndrome and anhydrosis (six women, 0.375% Marcaine 5cc): successful in all six subjects; complete alleviation of hot flashes, duration after initial stellate ganglion block (six women, 0.375% Marcaine 5cc, first block, self-reported): 2-5 weeks
